Measurements taken from US12151017B2, “Compositions and methods for hair regrowth” (Nutraceutical Wellness, Inc., priority 2015, dated 2024).

Test system: hair loss, Stage III Vertex/Stage IV MPHL
Experiment: Example 1: single subject given the components cumulatively over 7 months
Type: in vivo, human
Conditions: taken before the implementations of the disclosure
Method: During month 4, the subject was additionally given a daily 250 mg dose of Ashwagandha extracted from Withania somnifera, containing at least 8% withanolide glycosides and 32% oligosaccharides from the roots and leaves (Sensoril®, Natreon, New Brunswick, NJ) for stress associated with their condition and work. […] During month 5, the subject was additionally given a daily dose of Certified Organic saw palmetto extract Standardized 85-95% fatty acids (Valensa Eustis, FL) in the amount of 640 mg a day. […] During month 6, the subject added a 100 mg dose of tocotrienol/tocopherol complex comprising 78% tocotrienols and 22% tocopherols (Tocomax™ 20%, Carotech, Malaysia) a day. […] Lastly, in month 7, They were additionally given approximately 1000 mg of hydrolyzed marine collagen Types I and III (Youtheory, Tustin, CA) and 100 mg of hyaluronic acid (NOW Foods, Bloomingdale, IL).

Row | SMILES | hair outcome of earlier treatments (subject's history)
1 | O=C(O)CCCC[C@@H]1SC[C@@H]2NC(=O)N[C@@H]21 [biotin] | did not result in a noticeable cessation of hair loss or new hair growth
2 | CC(C)(C)NC(=O)[C@H]1CC[C@H]2[C@@H]3CC[C@H]4NC(=O)C=C[C@]4(C)[C@H]3CC[C@]12C [finasteride] | improvement was minimal
